This passage reports relative viability results from the supplement of paper PMC10307832.

What all share (assay): relative viability (nuclei count vs DMSO), 5 days (fraction); higher = more cells survive
Compound in the test “Dovitinib + Foretinib”: CN1CCN(c2ccc3nc(-c4c(N)c5c(F)cccc5[nH]c4=O)[nH]c3c2)CC1 [Dovitinib] + COc1cc2c(Oc3ccc(NC(=O)C4(C(=O)Nc5ccc(F)cc5)CC4)cc3F)ccnc2cc1OCCCN1CCOCC1 [Foretinib] (partner 0.25 µM)
The method, boiled down:
(§1)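 Lung cancer cell lines, seeded in 1536-well plates, were treated the following day by pin tool with a single drug or with five library-drug doses (not always all listed) in √10 steps on top of a fixed anchor-drug dose. Cells were fixed and nuclei stained in one step after 5 days, and nuclei were counted. Relative viability is the nuclei count for treated wells divided by that for vehicle wells, reported as medians of duplicate plates.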

Compound in the test “Dovitinib + Pictilisib”: CN1CCN(c2ccc3nc(-c4c(N)c5c(F)cccc5[nH]c4=O)[nH]c3c2)CC1 [Dovitinib] + CS(=O)(=O)N1CCN(Cc2cc3nc(-c4cccc5[nH]ncc45)nc(N4CCOCC4)c3s2)CC1 [Pictilisib] (partner 1 µM)
The method, boiled down:
as §1

Compound in the test “Dovitinib + AZD7762”: CN1CCN(c2ccc3nc(-c4c(N)c5c(F)cccc5[nH]c4=O)[nH]c3c2)CC1 [Dovitinib] + NC(=O)Nc1cc(-c2cccc(F)c2)sc1C(=O)N[C@H]1CCCNC1 [AZD7762] (partner 0.2 µM)
Put shortly: as §1

Compound in the test “Dovitinib + Vorinostat”: CN1CCN(c2ccc3nc(-c4c(N)c5c(F)cccc5[nH]c4=O)[nH]c3c2)CC1 [Dovitinib] + O=C(CCCCCCC(=O)Nc1ccccc1)NO [Vorinostat] (partner 1 µM)
The method, boiled down:
as §1

LOU-NH91: the relative viability with Dovitinib + Foretinib (first compound 0.02 µM) amounted to 0.926; in the test with Dovitinib + Foretinib (first compound 0.06325 µM), 0.896; with Dovitinib + Foretinib (first compound 0.2 µM), 0.95; in the test with Dovitinib + Foretinib (first compound 0.6325 µM) it was 0.921; with Dovitinib + Foretinib (first compound 2 µM) it was 1.05; in the test with Dovitinib + Pictilisib (first compound 0.02 µM), 0.523. Besides, the relative viability with Dovitinib + Pictilisib (first compound 0.06325 µM) was 0.553; with Dovitinib + Pictilisib (first compound 0.2 µM), 0.526; in the test with Dovitinib + Pictilisib (first compound 0.6325 µM), 0.518; in the test with Dovitinib + Pictilisib (first compound 2 µM) it was 0.535; with Dovitinib + AZD7762 (first compound 0.02 µM) it was 0.783; with Dovitinib + AZD7762 (first compound 0.06325 µM) it was 0.736. Moreover, the relative viability in the test with Dovitinib + AZD7762 (first compound 0.2 µM) is 0.707; in the test with Dovitinib + AZD7762 (first compound 0.6325 µM) it was 0.778; with Dovitinib + AZD7762 (first compound 2 µM), 0.783; in the test with Dovitinib + Vorinostat (first compound 0.02 µM), 0.961; with Dovitinib + Vorinostat (first compound 0.06325 µM), 0.846; in the test with Dovitinib + Vorinostat (first compound 0.2 µM), 0.919. The relative viability was 0.984 with Dovitinib + Vorinostat (first compound 0.6325 µM) and 0.94 with Dovitinib + Vorinostat (first compound 2 µM).

Turning to NCI-H2347, the relative viability in the test with Dovitinib + Foretinib (first compound 0.02 µM) worked out at 1.58; with Dovitinib + Foretinib (first compound 0.06325 µM) it was 0.902; with Dovitinib + Foretinib (first compound 0.2 µM) it was 0.83; in the test with Dovitinib + Foretinib (first compound 0.6325 µM), 1.2; with Dovitinib + Foretinib (first compound 2 µM), 1.02; with Dovitinib + Pictilisib (first compound 0.02 µM), 0.888. The relative viability is 0.676 with Dovitinib + Pictilisib (first compound 0.06325 µM); 0.947 with Dovitinib + Pictilisib (first compound 0.2 µM); 0.895 with Dovitinib + Pictilisib (first compound 0.6325 µM); 0.677 in the test with Dovitinib + Pictilisib (first compound 2 µM); 0.701 with Dovitinib + AZD7762 (first compound 0.02 µM); 0.606 in the test with Dovitinib + AZD7762 (first compound 0.06325 µM). Moreover, the relative viability came out at 0.864 in the test with Dovitinib + AZD7762 (first compound 0.2 µM); 0.774 in the test with Dovitinib + AZD7762 (first compound 0.6325 µM); 0.754 in the test with Dovitinib + AZD7762 (first compound 2 µM); 0.694 with Dovitinib + Vorinostat (first compound 0.02 µM); 0.647 in the test with Dovitinib + Vorinostat (first compound 0.06325 µM); 0.561 with Dovitinib + Vorinostat (first compound 0.2 µM). Besides, the relative viability in the test with Dovitinib + Vorinostat (first compound 0.6325 µM) turned out to be 0.692; with Dovitinib + Vorinostat (first compound 2 µM) it was 0.686.

In the case of NCI-H2126, the relative viability is 1.17 with Dovitinib + Foretinib (first compound 0.02 µM); 1.3 in the test with Dovitinib + Foretinib (first compound 0.2 µM); 1.14 with Dovitinib + Foretinib (first compound 0.6325 µM); 1.15 in the test with Dovitinib + Foretinib (first compound 2 µM); 0.476 with Dovitinib + Pictilisib (first compound 0.02 µM); 0.462 in the test with Dovitinib + Pictilisib (first compound 0.06325 µM). For the same cell line, the relative viability stood at 0.463 with Dovitinib + Pictilisib (first compound 0.2 µM); 0.559 with Dovitinib + Pictilisib (first compound 0.6325 µM); 0.504 in the test with Dovitinib + Pictilisib (first compound 2 µM); 0.982 in the test with Dovitinib + AZD7762 (first compound 0.02 µM); 1.04 with Dovitinib + AZD7762 (first compound 0.06325 µM); 1.03 with Dovitinib + AZD7762 (first compound 0.2 µM). The relative viability with Dovitinib + AZD7762 (first compound 0.6325 µM) is 1.04; with Dovitinib + AZD7762 (first compound 2 µM) it was 1; with Dovitinib + Vorinostat (first compound 0.02 µM) it was 0.811; in the test with Dovitinib + Vorinostat (first compound 0.06325 µM), 0.819; in the test with Dovitinib + Vorinostat (first compound 0.2 µM), 0.798; with Dovitinib + Vorinostat (first compound 0.6325 µM), 0.876. For the same cell line, in the test with Dovitinib + Vorinostat (first compound 2 µM), the relative viability amounted to 0.838.

Take HCC-827: the relative viability came to 0.983 in the test with Dovitinib + Foretinib (first compound 0.02 µM); 1.07 with Dovitinib + Foretinib (first compound 0.06325 µM); 1.14 in the test with Dovitinib + Foretinib (first compound 0.2 µM); 1.09 with Dovitinib + Foretinib (first compound 0.6325 µM); 1.09 in the test with Dovitinib + Foretinib (first compound 2 µM); 0.932 in the test with Dovitinib + Pictilisib (first compound 0.02 µM). For the same cell line, the relative viability with Dovitinib + Pictilisib (first compound 0.06325 µM) was determined as 0.942; with Dovitinib + Pictilisib (first compound 0.2 µM), 1.07; with Dovitinib + Pictilisib (first compound 0.6325 µM), 0.963; with Dovitinib + Pictilisib (first compound 2 µM), 1.01; with Dovitinib + AZD7762 (first compound 0.02 µM) it was 0.203; in the test with Dovitinib + AZD7762 (first compound 0.06325 µM), 0.213. For the same cell line, the relative viability with Dovitinib + AZD7762 (first compound 0.2 µM) amounted to 0.244; in the test with Dovitinib + AZD7762 (first compound 0.6325 µM), 0.237; with Dovitinib + AZD7762 (first compound 2 µM), 0.212; in the test with Dovitinib + Vorinostat (first compound 0.02 µM), 0.799; in the test with Dovitinib + Vorinostat (first compound 0.06325 µM) it was 0.867; with Dovitinib + Vorinostat (first compound 0.2 µM) it was 0.876. The relative viability in the test with Dovitinib + Vorinostat (first compound 0.6325 µM) amounted to 0.841; with Dovitinib + Vorinostat (first compound 2 µM) it was 0.805.

Regarding NCI-H3122, the relative viability is 1.06 with Dovitinib + Foretinib (first compound 0.02 µM); 0.963 with Dovitinib + Foretinib (first compound 0.06325 µM); 0.875 with Dovitinib + Foretinib (first compound 0.2 µM); 0.985 in the test with Dovitinib + Foretinib (first compound 0.6325 µM); 0.853 in the test with Dovitinib + Foretinib (first compound 2 µM); 0.793 in the test with Dovitinib + Pictilisib (first compound 0.02 µM). For the same cell line, the relative viability with Dovitinib + Pictilisib (first compound 0.06325 µM) turned out to be 0.588; with Dovitinib + Pictilisib (first compound 0.2 µM), 0.47; with Dovitinib + Pictilisib (first compound 0.6325 µM), 0.603; with Dovitinib + Pictilisib (first compound 2 µM) it was 0.66; in the test with Dovitinib + AZD7762 (first compound 0.02 µM) it was 0.926; with Dovitinib + AZD7762 (first compound 0.06325 µM) it was 1.02. Also, the relative viability in the test with Dovitinib + AZD7762 (first compound 0.2 µM) was determined as 0.995; with Dovitinib + AZD7762 (first compound 0.6325 µM), 0.925; with Dovitinib + AZD7762 (first compound 2 µM), 0.93; in the test with Dovitinib + Vorinostat (first compound 0.02 µM), 0.823; with Dovitinib + Vorinostat (first compound 0.06325 µM), 0.91; with Dovitinib + Vorinostat (first compound 0.2 µM), 1.07. Also, the relative viability with Dovitinib + Vorinostat (first compound 0.6325 µM) was found to be 0.951; with Dovitinib + Vorinostat (first compound 2 µM), 1.08.

For the cell line HOP-62, the relative viability stood at 1.05 with Dovitinib + Foretinib (first compound 0.02 µM); 1.18 with Dovitinib + Foretinib (first compound 0.06325 µM); 1.08 with Dovitinib + Foretinib (first compound 0.2 µM); 1.28 with Dovitinib + Foretinib (first compound 0.6325 µM); 1.07 with Dovitinib + Foretinib (first compound 2 µM); 0.578 in the test with Dovitinib + Pictilisib (first compound 0.02 µM). Moreover, the relative viability in the test with Dovitinib + Pictilisib (first compound 0.06325 µM) was 0.753; in the test with Dovitinib + Pictilisib (first compound 0.2 µM) it was 0.605; with Dovitinib + Pictilisib (first compound 0.6325 µM) it was 0.665; with Dovitinib + Pictilisib (first compound 2 µM) it was 0.632; in the test with Dovitinib + AZD7762 (first compound 0.02 µM), 0.364; with Dovitinib + AZD7762 (first compound 0.06325 µM), 0.534. Moreover, the relative viability worked out at 0.697 with Dovitinib + AZD7762 (first compound 0.2 µM); 0.62 with Dovitinib + AZD7762 (first compound 0.6325 µM); 0.551 with Dovitinib + AZD7762 (first compound 2 µM); 0.469 in the test with Dovitinib + Vorinostat (first compound 0.02 µM); 0.469 with Dovitinib + Vorinostat (first compound 0.06325 µM); 0.588 with Dovitinib + Vorinostat (first compound 0.2 µM). For the same cell line, the results for the relative viability in the test with Dovitinib + Vorinostat (first compound 0.6325 µM) and in the test with Dovitinib + Vorinostat (first compound 2 µM) were 0.667 and 0.797, respectively.
